The record followed here is patent US20060223812A1, “Treating neurodegenerative conditions” (MAX-PLANCK-GESELLSCHAFT ZUR FORDERUNGDER WISSENSCHAFTEN, …, priority 2004, published 2006).

Read-outs that look alike come from different tables or passages of the source.

A word on the IC50: it is the concentration at which inhibition is half-maximal. The inhibition is the percentage by which the read-out fell short of the control.

Format in all cases: biochemical
For assay [1], the target named is T1, four repeat construct K18 (Homo sapiens, UniProt P10636).
T1 construct: made in house; host or cells: E. coli
Briefly: Thioflavine S assay, inhibition of PHF formation, K18. The method, then:
(§1) Assembly of synthetic PHFs of tau protein (K19, 10 μM) was performed at 37° C. in the presence of polyanions (heparin; 5 μM) in 50 mM NH4Ac, pH 6.8. Assembly was followed either qualitatively by electron microscopy or quantitatively by fluorescence assay using thioflavine S. PHF-formation of tau isoforms htau23 and htau24 was carried out in PBS-buffer pH 7.4, 50 μM protein, and 12.5 μM heparin. The samples were incubated at 50° C. for 10 days. In the case of htau24 and K18, DTT was added at a final concentration of 1 mM each day in order to avoid intra-molecular disulfide crosslinking (Barghorn et al., 2000).
(§2) PHF formation was monitored by a thioflavine S fluorescence assay (Friedhoff et al., 1998a) adapted to a 384 well format. 60 μM of each substance was tested for its inhibitory effect on PHF formation. Using an automated pipetting system (Cybi-Well, CyBio, Jena, Germany) 50 mM NH4AC, 10 μM protein (K19), 60 μM compound and 5 μM heparin were mixed in 50 μl volume in a 384 well plate (black microtiter 384 plate round well, ThermoLabsystems, Dreiich, Germany) and incubated overnight at 37° C. As a control the protein was replaced with H2O to measure the possible fluorescence of the compounds. As a second control the reaction mixture without compound was treated in the same way.
(§3) After incubation with the compounds thioflavine S was added to the buffer to a final concentration of 20 μM and the signal was measured at excitation at 440 nm and emission at 521 nm in a spectrofluorimeter (Ascent; Labsystems, Frankfurt).
The four repeat construct K18 was tested under the same conditions (FIG. 2B). […] However, the decay of the curves of K18 is more gradual than those of K19, extending over 3-4 orders of magnitude of compound concentration (compare FIG. 2A).

A further assay addresses T2, tau construct K19 (Homo sapiens, UniProt P10636).
T2 construct: construct K19 containing three repeats; made in house; host or cells: E. coli
Briefly: Thioflavine S assay, inhibition of PHF formation, K19. The conditions noted are these: ThS fluorescence, 10 μM K19, heparin; read-out: Inhibition of tau aggregation IC50, K19. The method, then:
as §1, §2, §3
Inhibitory effects begun to appear at concentrations around 0.1 μM (ratio of protein to compound=100), and reached nearly complete inhibition at 100 μM compound concentration (ratio protein/compound=0.1). Overall, the curves of FIG. 2A decay fairly steeply over a compound concentration range of 2-3 orders of magnitude.
(A) extent of aggregation of tau construct K19 (10 μM) plotted vs. inhibitor concentration (range 1 fM-60 μM). The extent of aggregation was measured by the thioflavin S fluorescence assay and the degree of inhibition was plotted as percentage of control. All measurements were performed in triplicates.

The next assay deals with T3, PHFs from htau23 (Homo sapiens, UniProt P10636).
T3 construct: made in house; host or cells: E. coli
Description: Thioflavine S assay, depolymerisation of pre-formed PHFs, htau23. The method, then: The ThS assay was used to analyse the ability of the five compounds (see Example 4) to depolymerise pre-formed PHFs made from the repeat domain constructs K19 and K18 as well as from isoforms htau23 and htau24, containing 3 or 4 repeats, respectively.
PHFs assembled from the full length three repeat isoform htau23 were also sensitive to disaggregation (FIG. 4C). The DC50 values ranged from 7.0 to 60 μM.
Tau constructs and isoforms K19, K18, hTau23, hTau24 (10 μM) were first aggregated into PHFs for 48 hours in the presence of 2.5 μM heparin (except K18/ΔK280) and the polymers separated from the soluble tau by centrifugation of 1 h at 100,000 g, redissolved and then exposed to the inhibitors overnight at 37° C. at the indicated concentrations (range 0.001-200 μM).

The target of a further assay is T4, htau23 (Homo sapiens, UniProt P10636).
T4 construct: made in house; host or cells: E. coli
Briefly: Thioflavine S assay, inhibition of PHF formation, htau23. The conditions noted are these: for inhibition at 0.1 µM / inhibition at 60 µM: read-out: inhibition of PHF formation, htau23; for effect on PHF formation, htau23: low concentration. The method, then: as §1

Setting [2] is: ThS fluorescence, K18, heparin, read-out: Inhibition of tau aggregation IC50, K18.
Where [3] appears, read: ThS fluorescence, read-out: Depolymerisation of PHFs DC50, hTau23.
[4] abbreviates: ThS fluorescence, read-out: Inhibition of tau aggregation IC50, hTau23.

T4 sequence (P10636 1-352 isoform P10636-2): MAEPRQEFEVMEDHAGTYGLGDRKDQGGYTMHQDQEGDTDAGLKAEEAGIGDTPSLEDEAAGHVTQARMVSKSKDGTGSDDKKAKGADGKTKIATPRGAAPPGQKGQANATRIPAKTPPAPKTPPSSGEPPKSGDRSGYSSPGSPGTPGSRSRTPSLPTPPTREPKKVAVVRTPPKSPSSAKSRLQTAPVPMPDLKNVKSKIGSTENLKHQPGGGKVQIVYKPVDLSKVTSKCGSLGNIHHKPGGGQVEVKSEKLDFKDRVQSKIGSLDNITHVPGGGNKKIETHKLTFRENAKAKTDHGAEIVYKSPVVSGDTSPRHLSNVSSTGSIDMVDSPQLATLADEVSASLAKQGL
T3 sequence (P10636 1-352 isoform P10636-2): as above
T2 sequence (P10636 with tags, fused parts or gaps isoform P10636-2 limits assumed): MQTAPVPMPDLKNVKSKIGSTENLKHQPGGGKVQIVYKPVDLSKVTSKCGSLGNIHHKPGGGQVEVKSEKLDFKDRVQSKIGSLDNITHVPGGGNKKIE
T1 sequence (P10636 561-685 limits assumed): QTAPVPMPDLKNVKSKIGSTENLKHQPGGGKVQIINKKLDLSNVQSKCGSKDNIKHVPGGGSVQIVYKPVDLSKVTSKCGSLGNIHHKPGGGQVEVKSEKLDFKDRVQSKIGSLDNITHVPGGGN

Take `COc1cccc2c1C(=O)c1c(O)c3c(c(O)c1C2=O)CC(O)(C(=O)CO)CC3OC1CC(N)C(O)C(C)O1` (stereo not shown) [Adriamycin, 10-(4-Amino-5-hydroxy-6-methyl-tetrahydro-pyran-2-yloxy)-6,8,11-trihydroxy-8-(2-hydroxyethanoyl)-1-methoxy-7,8,9,10-tetrahydro-naphthacene-5,12-dione, reference compound]: the IC50 was determined as 100 nM in assay [1], 17600 nM on tau construct K19 and 200 nM on htau23. Moreover, the DC50 at PHFs from htau23 (read-out: Depolymerisation of PHFs DC50, hTau23, ThS fluorescence) is 13200 nM.

In the case of `COc1cccc2c1C(=O)c1c(O)c3c(c(O)c1C2=O)CC(O)(C(C)=O)CC3OC1CC(N)C(O)C(C)O1` (stereo not shown) [Daunorubicin, 8-Acetyl-10-(4-amino-5-hydroxy-6-methyl-tetrahydro-pyran-2-yloxy)-6,8,11-trihydroxy-1-methoxy-7,8,9,10-tetrahydro-naphthacene-5,12-dione, reference compound], the IC50 is 300 nM in assay [1] (setting [2]), 1000 nM on tau construct K19 and 100 nM on htau23 (setting [4]). The DC50 at PHFs from htau23 (setting [3]) was 8200 nM. On htau23, the inhibition at 0.1 µM was about 50%. In addition, the inhibition at 60 µM at htau23 was about 90%.

As to `Cc1cc(O)c2c(c1)C(=O)c1cc(O)cc(O)c1C2=O` [Emodin, 1,3,8-Trihydroxy-6-methyl-anthraquinone], the IC50 in assay [1] (setting [2]) stood at 300 nM; on tau construct K19 it was 2400 nM; on htau23 (setting [4]), 200 nM. Besides, the DC50 on PHFs from htau23 (setting [3]) was found to be 7000 nM. For the same molecule, the inhibition at 0.1 µM on htau23 (0.1 μM compound) is about 50%. Also, the inhibition at 60 µM at htau23 (60 μM compound) was about 90%.

In the case of `O=C(c1ccccc1)c1ccc(O)c(O)c1O` [PHF005, 1-Phenyl-1-(2,3,4-trihydroxy-phenyl)-methanone], the IC50 in assay [1] (setting [2]) was found to be 2700 nM; at tau construct K19, 6000 nM; at htau23 (setting [4]) it was 1100 nM. At PHFs from htau23 (setting [3]), the DC50 was over 60000 nM. Also, at htau23 (60 μM compound), the inhibition at 60 µM is about 50%. Moreover, the “effect on PHF formation, htau23” value at htau23 was “only a slight effect”.

As for `O=C1c2ccc(O)c(O)c2C(=O)c2c(O)ccc(O)c21` [PHF016, 1,2,5,8-Tetrahydroxy-anthraquinone], the figures for the IC50 (in assay [1] (setting [2]); on tau construct K19; at htau23 (setting [4])) were 600 nM, 6800 nM and 1000 nM, respectively. The DC50 at PHFs from htau23 (setting [3]) is over 60000 nM. In addition, at htau23 (60 μM compound), the inhibition at 60 µM was about 50%. Moreover, the “effect on PHF formation, htau23” value on htau23 is “only a slight effect”.
